Assay results as given in a melting point compilation (Tetko et al.; mined from patent text by program, amines drawn as free bases though some values may be those of a salt).
Non-standard residues stand in square brackets, D forms with d. Residues, ends and D or L forms follow the SMILES beside them. ξ: configuration not given here. *: point of attachment. Boc = CC(C)(C)OC(=O)*; ξA = CC(N)C(=O)O

SMILES | melting point [°C]
Cc1cc(C)cc(C(=O)OCC2(N3CCN(C(=O)OC(C)(C)C)CC3)Cc3ccccc3C2)c1 | 139
O=c1ccc2c(OS(=O)(=O)C(F)(F)F)cccc2o1 | 104 to 105
CC(C)N(O)C(=O)Nc1ccc(S(C)(=O)=O)cc1 | 163 to 164
O=S(=O)(Nc1ccccc1COc1cccc2cccnc12)c1ccc(F)cc1 | 121 to 122
CCn1cc(Cl)nc(S)c1=O | 142 to 144
COC(=O)c1cc(OCCc2nc(-c3ccccc3)oc2C)no1 | 90 to 91
O=C1CCCN(C(=O)c2ccc([N+](=O)[O-])cc2Cl)c2ccccc21 | 140 to 143
CC(=O)c1cc(C(C)=O)c(O)c(C(C)C)c1O | 132 to 133
CSc1cc(C)nc(SC)c1NC(=O)CN1CCN(CCCSc2nc3ccccc3o2)CC1 | 160 to 161
O=C(CCCCCCCCc1ccccc1)NO | 75 to 77
COc1ccc(CSc2nnc(-c3ccc4occc4c3)o2)cc1F | 134 to 136
O=C(CCCCCBr)Nc1cc(Cl)c(O)c(Cl)c1 | 113 to 114
O=C(O)c1cn(-c2ccc(F)cc2)c2c(F)c(N3Cc4cccc(Cl)c4C3)c(F)cc2c1=O | 283 to 291
CCOC(=O)c1cc(SC#N)c(-c2ccc(Cl)cc2)[nH]1 | 138 to 141
Cc1cc(C(=O)NCCO)ncc1C(c1c(F)ccc(F)c1F)S(=O)(=O)CCC(F)(F)F (configuration not stated) | 146 to 147
CCCOC(=O)Nc1nc2ccccc2c2c1nc(COCC)n2CC(C)(C)NS(C)(=O)=O | 125 to 127
CCOC(=O)c1cnn(-c2ccc(C)cc2)n1 | 61 to 62
COc1ccc(N2CCOCC2)c2sc(-c3nc4ccc(N5CCOCC5)nc4[nH]3)nc12 | 260 to 262
Nc1cc(C(=O)O)cc(SCc2ccccc2)c1Oc1ccccc1 | 159 to 161
O=c1[nH]c2[nH]c3ccc(Cl)cc3c2c2c(F)cccc12 | > 300
CCN(CCCCN)c1ccc2c(=O)[nH][nH]c(=O)c2c1 | 255 to 257
Clc1ccc2c3c(cccc13)C(NCCCn1ccnc1)=N2 | 177 to 178
CCS(=O)(=O)Nc1n[nH]c2nc(Oc3ccc(F)cc3F)ncc12 | 226 to 227
O=C(Oc1ccc2c(OC(=O)c3ccc(O)c(O)c3)c3cc(OC(=O)c4ccc(O)c(O)c4)ccc3cc2c1)c1ccc(O)c(O)c1 | 233
CCOC(=O)c1cnn(-c2ccc(Cl)c(Cl)c2)c1C#N | 79 to 81
COc1cc(C(=O)O)cc2c1CC(C)O2 (configuration not stated) | 180 to 182

SMILES | melting point [°C]
CCOC(=O)c1cc2cc([Si](C)(C)C)ccc2[nH]1 | 114 to 115
CCOC(=O)n1nc(-c2cccc(OC)c2)nc1-c1ccccc1CC | 80 to 82
CN1CCN(CCn2c3ccccc3c(=O)c3ccccc32)CC1 | 156 to 157
NS(=O)(=O)c1ccc(-c2cnn(CC=C(Cl)Cl)c(=O)c2-c2ccc(F)cc2)cc1 | 184 to 185
FC(F)(F)c1cccc(C2=NN3CCN=C3C=C2)c1 | 137 to 139
N#Cc1cc(Oc2ccc(Cl)c(Cl)c2)cnc1Cl | 76 to 78
O=C1Cc2cc(F)ccc2N1 | 131 to 133
Clc1ccc(N2CCN(CCCc3c4c(nn3-c3ccccc3)CCCC4)CC2)cc1 | 127 to 129
CCC(=O)c1ccc(OC)c(O)c1 | 91 to 92
CN(C(=O)c1ccco1)c1cccc(-c2nc(=O)c3ccccc3s2)n1 | 186 to 187
CSCc1c(N)c(Br)cc(F)c1F | 60 to 61
CCCOc1ncc(NC(C)C(=O)OC)cc1-c1nc2c(CCC)nn(C)c2c(=O)[nH]1 (configuration not stated) | 185 to 187
CO[C@@H](Cc1ccc(OCCc2nc(-c3cc(C)cc(C)c3)oc2C)c2ccsc12)C(=O)O | 184 to 185
CC1(C)NC(=S)NC1=S | 144
N#Cc1ccc(N2CCCCO2)c2ccccc12 | 111 to 112
COc1cc(OC)cc(N2CCN(C(=O)Nc3cc4c(nc3OC)CCC4)CC2)c1 | 143 to 144
CSc1nccc(Oc2ccc(NC(=O)OC(C)(C)C)c3ccccc23)n1 | 173 to 174
CCOC(=O)c1c[nH]n(Cc2ccccc2)c1=O | 79 to 81
OC1CSC(Oc2ccc(-c3ccnc(F)c3)nc2)C(O)C1O (configuration not stated) | 219
CN1CCC(Cn2c(=O)[nH]c3ncc(-c4ccc(O)cc4)nc32)CC1 | 292 to 294
Cn1c(COc2ccc(CC3SC(=O)NC3=O)cc2)nc2ccc(Oc3ccc4cccc(NC(=O)Nc5ccc(F)cc5F)c4c3)cc21 (configuration not stated) | 222 to 224
CN(C)C(=O)C1CN(C)c2nc3cc(F)c(F)cc3cc2C1=O (configuration not stated) | 206
Cn1cc(C(=O)NCc2ccc(Cl)cc2)c(=O)c2cc(CN3CC[C@@H](O)C3)oc21 | 189 to 190
CCCc1nc(N)nc(N)c1N1CCN(c2ccc(C#N)cc2)CC1 | > 300
COC(=O)C1Oc2ccc(Cl)cc2C(C)(c2ccccc2)O1 (configuration not stated) | 114 to 115
COC(=O)CNC(=O)C(C)NC(=O)CNC(=O)CNC(=O)OC(C)(C)C (configuration not stated) (Boc-GG[ξA]G-OMe) | 103 to 105

SMILES | melting point [°C]
CCCc1cc2c(c(C)c1O)CCO2 | 72 to 73
O=C1CCC(Nc2ccc3[nH]c(=O)c(C(=O)O)cc3c2)N1 (configuration not stated) | > 300
OCCC1(c2ccccc2)CCNC1 (configuration not stated) | 106 to 110
COC(=O)C1=C(C)Nc2ncnn2C1c1cccs1 (configuration not stated) | 239 to 240
O=C(CS(=O)C(c1ccc(F)cc1)c1ccc(F)cc1)NO (configuration not stated) | 90 to 91
N#CCc1ccc(NC(=O)CNc2ccccc2F)cc1 | 111 to 113
Nc1ncnc2c1c(-c1cc(O)cc(F)c1)nn2Cc1oc2ccccc2c(=O)c1-c1ccccc1 | 260 to 262
COc1ccc(C(=O)Nc2c(Cl)cc(CO)cc2Cl)cc1OC1CCCC1 | 174 to 176
O=C(CC1CCCCC1)Nc1c(Cl)ccc2nc(CCCCc3nnn[nH]3)ccc12 | 192 to 195
CC(C)(c1ccc(Oc2cccc3c2C(=O)NC3=O)cc1)c1ccc(Oc2cccc3c2C(=O)NC3=O)cc1 | 258 to 260
O=S1(=O)c2ccccc2N(c2ccccc2)c2ccccc21 | 212 to 217
CCCCCCCCCCCCNC(=O)c1cc(Br)c(OCCn2cnnn2)c(-c2cccc(C(F)(F)F)c2)c1 | 91.5 to 92.6
CN(C(=O)c1ccc2nonc2c1)C1CCCCCC1 | 80 to 81
O=C1C=CC(=O)N1c1ccccc1SCCSc1ccccc1N1C(=O)C=CC1=O | 110 to 115
CCc1n[nH]c2cc(-c3ccc4nnn(Cc5ccc6ncccc6c5)c4n3)ccc12 | 211 to 213
COCc1ccc(C(=O)NC(C#N)n2cccn2)cc1 (configuration not stated) | 155 to 157
CCCn1nc2c(N)nc3ccccc3c2c1CCNC(=O)NC(C)C | 197 to 198
FC(F)(F)C(Cc1ccccc1)c1ccccc1 (configuration not stated) | 58 to 61
COC(=O)[C@@H]1C[C@H](OC(=O)c2ccc([N+](=O)[O-])cc2)C[C@H]1C(=O)OCc1ccccc1 | 79.5
CCCc1nc(NS(=O)(=O)c2ccc(C(C)(C)C)cc2)c(-c2ccc(C)cc2)c(OCCO)n1 | 133 to 134
O=C(CCCCCl)Nc1nnc(SCc2ccccc2)s1 | 145 to 148
COc1ccc2c(c1)C1Cc3ccccc3C1N2C (configuration not stated) | 72
CC(C)(C)c1cc(C(N)=NO)cc2c1OCC2(C)C | 109 to 110
CC(C)(C)OC(=O)NC(C)(C)c1ccc(-c2nc(Nc3cccc(CCO)c3)ncc2C#N)cc1 | 164
Fc1cc(N2CCN(CCc3coc4ccc(F)cc34)CC2)c2ncccc2c1 | 55
CC(C)(C)c1cc(N)n(-c2ccccc2)n1 | 65 to 67

SMILES | melting point [°C]
COc1ccc(C(=O)c2ccc(Oc3ccc(Cl)cc3)cn2)cc1OC | 145 to 147
O=C(c1cccs1)c1cnn2c(-c3cccc(NC/C=C/c4ccc([N+](=O)[O-])cc4)c3)ccnc12 | 163 to 166
OC(c1ccccc1)(c1ccccc1-c1ccccc1)C1CCNCC1 (configuration not stated) | 185 to 186
CCOC(=O)C(C)=Cc1ccc(Sc2ccncc2)c(C(F)(F)F)c1 | > 200
CS(=O)(=O)c1ccc(-c2nn(CC3CC3)c(=O)cc2-c2ccc(F)cc2)cc1 | 124
COc1cc2c(cc1OC)CN(CCCc1ccc(NC(=O)c3cnc4ccccc4c3)cc1)CC2 | 184 to 185
COC(=O)CN(N)CC(=O)OC | 166
CNC(=O)c1cccc(NC(=O)Cc2cccc(F)c2)c1 | 147 to 148
Cc1ccc(Oc2nc3ccc(N=C=S)cc3s2)cc1 | 121 to 123
Cc1cccc2c1CCC2NC(=S)NCCO (configuration not stated) | 90 to 93
CC(C)(C)c1cc(CCc2ccccc2NC(=O)N2CCOCC2)cc(C(C)(C)C)c1O | 186 to 189
N#Cc1ccc(N2CCN(Cc3cnc4c(c3)NC(=O)C3CCCCN43)CC2)cc1 (configuration not stated) | 212
O=C(Nc1nc2ccc(Sc3cnc4ncccn34)cc2s1)c1ccccc1 | > 260
NNC(=S)NCC1CC(c2ccc(Cl)cc2)=NO1 (configuration not stated) | 115 to 117
Cc1nnc(-c2ccc3occ(-c4cnco4)c3c2)o1 | 184 to 185
CCOC(=O)CC(=O)CSc1nc2cc(Cl)c(F)cc2c(O)c1C(=O)OCC | 167 to 170
O=[N+]([O-])c1cc(O)c(Cl)cc1F | 106 to 107
Oc1cc(Br)ccc1Br | 71 to 74
CCCCNc1cc(C(=O)O)cc(S(N)(=O)=O)c1Nc1ccc(N)cc1 | 210
CCCCCC(Oc1ccc(C2=CCCCC2)cc1)C(=O)NC(C)C (configuration not stated) | 86 to 88
COc1ccc(C(=O)Nc2ccccc2)cc1NS(=O)(=O)c1sc(NC(C)=O)nc1C | 260 to 261
NC(CF)(Cc1cc(O)ccc1O)C(=O)O (configuration not stated) | 212
Cc1cc(C2(C(F)(F)F)CC(C#N)=C(c3ccccc3)O2)ccc1NC(=O)OC(C)(C)C (configuration not stated) | 46 to 49
CC(=O)OCC1COc2c(C(=O)O)cc(Cl)c(Cl)c2O1 (configuration not stated) | 144 to 145
